Test results published in patent US20220153744A1, “SOLID STATE FORMS OF ACALABRUTINIB” (ASSIA CHEMICAL INDUSTRIES LTD., priority 2019, published 2022).

Key:
Type in all cases: physicochemical
[1] = Polymorphic stability on heating; conditions: heated to about 100° C. over about 30 minutes
From the text: (§1) Crystalline Form ACB3 of Acalabrutinib may have advantageous properties as described herein above.

[2] = Polymorphic stability towards grinding
From the text: as §1

[3] = Polymorphic stability on storage at defined temperature and relative humidity
From the text: as §1

- polymorphic stability when heated [1]: polymorphically stable
- polymorphic stability towards solvent grinding ([2]; solvent grinding): polymorphically stable
- polymorphic stability towards strong dry grinding ([2]; strong dry grinding): polymorphically stable
- polymorphic stability on storage ([3]; 40° C., RH of about 75%, at least 1 month): polymorphically stable
- polymorphic stability on storage ([3]; room temperature, RH of about 60%, at least 1 month): polymorphically stable
- polymorphic stability on storage ([3]; room temperature, RH of about 80%, at least 7 days): polymorphically stable
SMILES: CC#CC(=O)N1CCC[C@H]1c1nc(-c2ccc(C(=O)Nc3ccccn3)cc2)c2c(N)nccn12 [Form ACB3, 4-{8-Amino-3-[(2S)-1-(2-butynoyl)-2-pyrrolidinyl]imidazo[1,5-a]pyrazin-1-yl}-N-(2-pyridinyl)benzamide]
